# Assay results as given in PubChem BioAssay AID248 (DTP/NCI, 2004).
# Several values for one entry are separate records, joined by “and”; a condition that tells them apart may be missing. Identical values can stand only once. Inconclusive results and toxic doses are left out.
# Tested on: L1210 leukemia ip in BDF1 mice, survival T/C
# Assay: NCI In Vivo Anticancer Drug Screen. Data for tumor model L1210 Leukemia (intraperitoneal) in B6D2F1 (BDF1) mice
# Settings: endpoint: mean survival time, higher = longer survival
# In short: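 Ratio derived from survival: compound-dosed mice over vehicle-dosed mice, all bearing a transplantable tumor.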
# [1] = dose: 50.0 mg/kg/injection, schedule: Q01DX001 (ip), vehicle: carboxymethylcellulose (CMC)
# [2] = dose: 100.0 mg/kg/injection, schedule: Q01DX001 (ip), vehicle: carboxymethylcellulose (CMC)
# [3] = dose: 200.0 mg/kg/injection, schedule: Q01DX001 (ip), vehicle: carboxymethylcellulose (CMC)
# [4] = dose: 100.0 mg/kg/injection, schedule: Q01DX009 (ip), vehicle: Klucel (hydroxypropylcellulose) (HPC)
# [5] = dose: 100.0 mg/kg/injection, schedule: Q04DX003 (ip), vehicle: Klucel (hydroxypropylcellulose) (HPC)
# [6] = dose: 200.0 mg/kg/injection, schedule: Q01DX009 (ip), vehicle: Klucel (hydroxypropylcellulose) (HPC)
# [7] = dose: 200.0 mg/kg/injection, schedule: Q04DX003 (ip), vehicle: Klucel (hydroxypropylcellulose) (HPC)
# [8] = dose: 400.0 mg/kg/injection, schedule: Q01DX009 (ip), vehicle: Klucel (hydroxypropylcellulose) (HPC)
# [9] = dose: 400.0 mg/kg/injection, schedule: Q04DX003 (ip), vehicle: Klucel (hydroxypropylcellulose) (HPC)
# [10] = dose: 100.0 mg/kg/injection, schedule: Q01DX001 (ip), vehicle: saline
# [11] = dose: 200.0 mg/kg/injection, schedule: Q01DX001 (ip), vehicle: saline
# [12] = dose: 100.0 mg/kg/injection, schedule: Q04DX003 (ip), vehicle: saline
# [13] = dose: 100.0 mg/kg/injection, schedule: Q04DX002 (ip), vehicle: saline
# [14] = dose: 200.0 mg/kg/injection, schedule: Q04DX002 (ip), vehicle: saline
# [15] = dose: 400.0 mg/kg/injection, schedule: Q04DX002 (ip), vehicle: saline
# [16] = dose: 100.0 mg/kg/injection, schedule: Q04DX002 (ip), vehicle: Klucel (hydroxypropylcellulose) (HPC)
# [17] = dose: 200.0 mg/kg/injection, schedule: Q04DX002 (ip), vehicle: Klucel (hydroxypropylcellulose) (HPC)
# [18] = dose: 400.0 mg/kg/injection, schedule: Q04DX002 (ip), vehicle: Klucel (hydroxypropylcellulose) (HPC)
# [19] = dose: 400.0 mg/kg/injection, schedule: Q01DX001 (ip), vehicle: carboxymethylcellulose (CMC)
smiles,measurement,setting,value
O=NN(CCCl)C(=O)NC1CCS(=O)(=O)CC1,T/C,"dose: 6.0 mg/kg/injection, schedule: Q01DX001 (ip), vehicle: carboxymethylcellulose (CMC)",228 % of control
same,T/C,"dose: 7.5 mg/kg/injection, schedule: Q01DX001 (ip), vehicle: carboxymethylcellulose (CMC)",313 % of control
same,T/C,"dose: 8.0 mg/kg/injection, schedule: Q01DX001 (ip), vehicle: carboxymethylcellulose (CMC)",235 % of control
same,T/C,"dose: 11.4 mg/kg/injection, schedule: Q01DX001 (ip), vehicle: carboxymethylcellulose (CMC)",337 % of control
same,T/C,"dose: 12.0 mg/kg/injection, schedule: Q01DX001 (ip), vehicle: carboxymethylcellulose (CMC)",211 % of control and 319 % of control
same,T/C,"dose: 17.0 mg/kg/injection, schedule: Q01DX001 (ip), vehicle: carboxymethylcellulose (CMC)",337 % of control
same,T/C,"dose: 18.0 mg/kg/injection, schedule: Q01DX001 (ip), vehicle: carboxymethylcellulose (CMC)",319 % of control
same,T/C,"dose: 37.0 mg/kg/injection, schedule: Q01DX001 (ip), vehicle: carboxymethylcellulose (CMC)",93 % of control and 105 % of control
O=C1NC(CCCl)C(=O)NC1CCCl (centres undefined),T/C,[1],107 % of control
same,T/C,[2],101 % of control
same,T/C,[3],91 % of control
O=C1/C(=C\c2ccccn2)CCCc2ccccc21,T/C,"dose: 25.0 mg/kg/injection, schedule: Q01DX009 (ip), vehicle: Klucel (hydroxypropylcellulose) (HPC)",102 % of control
same,T/C,"dose: 50.0 mg/kg/injection, schedule: Q01DX009 (ip), vehicle: Klucel (hydroxypropylcellulose) (HPC)",98 % of control
same,T/C,"dose: 50.0 mg/kg/injection, schedule: Q04DX003 (ip), vehicle: Klucel (hydroxypropylcellulose) (HPC)",98 % of control
same,T/C,[4],101 % of control
same,T/C,[5],98 % of control
same,T/C,"dose: 100.0 mg/kg/injection, schedule: Q04DX003 (ip), vehicle: carboxymethylcellulose (CMC)",96 % of control
same,T/C,[6],100 % of control
same,T/C,[7],102 % of control
same,T/C,"dose: 200.0 mg/kg/injection, schedule: Q04DX003 (ip), vehicle: carboxymethylcellulose (CMC)",100 % of control
same,T/C,[8],102 % of control
same,T/C,[9],93 % of control
same,T/C,"dose: 400.0 mg/kg/injection, schedule: Q04DX003 (ip), vehicle: carboxymethylcellulose (CMC)",156 % of control
same,T/C,"dose: 800.0 mg/kg/injection, schedule: Q04DX003 (ip), vehicle: Klucel (hydroxypropylcellulose) (HPC)",104 % of control
Oc1c(Cl)cc(Cl)cc1/C=N/N1CCN(/N=C/c2cc(Cl)cc(Cl)c2O)CC1,T/C,[10],87 % of control
same,T/C,[11],87 % of control
Cc1cccc(Cl)c1NC(N)=O,T/C,[4],102 % of control
same,T/C,[5],103 % of control
same,T/C,[6],102 % of control
same,T/C,[7],94 % of control
same,T/C,[8],97 % of control
same,T/C,[9],95 % of control
C=CCC(CC)C(=O)O (centres undefined),T/C,"dose: 100.0 mg/kg/injection, schedule: Q01DX009 (ip), vehicle: saline",104 % of control
same,T/C,[12],100 % of control
same,T/C,"dose: 200.0 mg/kg/injection, schedule: Q01DX009 (ip), vehicle: saline",96 % of control
same,T/C,"dose: 200.0 mg/kg/injection, schedule: Q04DX003 (ip), vehicle: saline",97 % of control
same,T/C,"dose: 400.0 mg/kg/injection, schedule: Q04DX003 (ip), vehicle: saline",97 % of control
C1=Cc2ccccc2C(c2ccccc2)S1 (centres undefined),T/C,[13],103 % of control
same,T/C,[14],98 % of control
same,T/C,[15],103 % of control
NC=O,T/C,"dose: 62.5 mg/kg/injection, schedule: Q01DX009 (ip), vehicle: saline",112 % of control
same,T/C,"dose: 62.5 mg/kg/injection, schedule: Q01DX015 (ip), vehicle: saline",95 % of control
same,T/C,[10],94 % of control and 109 % of control
same,T/C,"dose: 125.0 mg/kg/injection, schedule: Q01DX009 (ip), vehicle: saline",107 % of control
same,T/C,"dose: 125.0 mg/kg/injection, schedule: Q01DX015 (ip), vehicle: saline",101 % of control
same,T/C,[11],101 % of control and 92 % of control
same,T/C,"dose: 250.0 mg/kg/injection, schedule: Q01DX009 (ip), vehicle: saline",118 % of control
same,T/C,"dose: 250.0 mg/kg/injection, schedule: Q01DX015 (ip), vehicle: saline",110 % of control
same,T/C,"dose: 400.0 mg/kg/injection, schedule: Q01DX001 (ip), vehicle: saline",100 % of control and 101 % of control
same,T/C,"dose: 500.0 mg/kg/injection, schedule: Q01DX015 (ip), vehicle: saline",92 % of control
same,T/C,"dose: 800.0 mg/kg/injection, schedule: Q01DX001 (ip), vehicle: saline",106 % of control
C1COC2(OC1)OCCCO2,T/C,[16],108 % of control
same,T/C,[17],105 % of control
same,T/C,[18],105 % of control
Cc1cccc(C)c1NC(=O)OCCOc1ccc(Cl)cc1Cl,T/C,"dose: 50.0 mg/kg/injection, schedule: Q01DX009 (ip), vehicle: saline with Tween-80",90 % of control
same,T/C,"dose: 100.0 mg/kg/injection, schedule: Q01DX009 (ip), vehicle: saline with Tween-80",95 % of control
same,T/C,"dose: 200.0 mg/kg/injection, schedule: Q01DX009 (ip), vehicle: saline with Tween-80",95 % of control
Cc1cc(C)c(O)c(CN(C)Cc2c(C)[nH]c(=O)[nH]c2=O)c1,T/C,[2],98 % of control
same,T/C,[3],91 % of control
same,T/C,[19],91 % of control
CN(C)C=NC1c2ccccc2CCc2ccccc21,T/C,[4],98 % of control
same,T/C,[5],104 % of control
same,T/C,[6],97 % of control
same,T/C,[7],91 % of control
same,T/C,[8],100 % of control
same,T/C,[9],94 % of control
Brc1ccc(N=Nc2ccccc2)cc1,T/C,[5],103 % of control
same,T/C,[7],97 % of control
same,T/C,[9],103 % of control
COc1ccc(COC(=O)Nc2cccc(Cl)c2)cc1OC,T/C,[4],96 % of control
same,T/C,[6],102 % of control
same,T/C,[8],103 % of control
O=c1cc(O)nc2ccccn12,T/C,[4],99 % of control
same,T/C,[5],95 % of control
same,T/C,[6],97 % of control
same,T/C,[7],96 % of control
same,T/C,[8],92 % of control
same,T/C,[9],91 % of control
O=[N+]([O-])/C=C\c1ccc(/C=C/[N+](=O)[O-])cc1,T/C,"dose: 1.5 mg/kg/injection, schedule: Q01DX009 (ip), vehicle: other",95 % of control
same,T/C,"dose: 1.5 mg/kg/injection, schedule: Q04DX003 (ip), vehicle: other",101 % of control
same,T/C,"dose: 3.0 mg/kg/injection, schedule: Q01DX009 (ip), vehicle: other",93 % of control
same,T/C,"dose: 3.0 mg/kg/injection, schedule: Q04DX003 (ip), vehicle: other",101 % of control
same,T/C,"dose: 6.0 mg/kg/injection, schedule: Q04DX003 (ip), vehicle: other",98 % of control
c1ccc(P(CCP(CCP(c2ccccc2)c2ccccc2)c2ccccc2)CCP(c2ccccc2)c2ccccc2)cc1 (centres undefined),T/C,"dose: 100.0 mg/kg/injection, schedule: Q04DX002 (ip), vehicle: saline with Tween-80",90 % of control
same,T/C,[13],101 % of control
same,T/C,[5],95 % of control and 101 % of control
same,T/C,"dose: 200.0 mg/kg/injection, schedule: Q04DX002 (ip), vehicle: saline with Tween-80",96 % of control
same,T/C,[14],96 % of control
same,T/C,[7],96 % of control and 102 % of control
same,T/C,"dose: 400.0 mg/kg/injection, schedule: Q04DX002 (ip), vehicle: saline with Tween-80",93 % of control
same,T/C,[15],101 % of control
same,T/C,[9],93 % of control
CN(C)P1(=O)OCC(C(C)(C)C)CO1 (centres undefined),T/C,[12],112 % of control
Oc1ccc(C2CC3CCC2C3)cc1 (centres undefined),T/C,"dose: 100.0 mg/kg/injection, schedule: Q04DX003 (ip), vehicle: saline + alcohol",98 % of control
same,T/C,"dose: 200.0 mg/kg/injection, schedule: Q04DX003 (ip), vehicle: saline + alcohol",90 % of control
same,T/C,"dose: 400.0 mg/kg/injection, schedule: Q04DX003 (ip), vehicle: saline + alcohol",96 % of control
CCOC(=O)C(C(=O)OCC)C(CC(=O)C1CC1)c1ccccc1 (centres undefined),T/C,[1],92 % of control
same,T/C,[2],95 % of control
same,T/C,[16],97 % of control
same,T/C,[3],92 % of control
same,T/C,[17],101 % of control
same,T/C,[19],95 % of control
same,T/C,[18],111 % of control
c1ccc2c[n+](Cc3nc4ccccc4[nH]3)ccc2c1,T/C,"dose: 75.0 mg/kg/injection, schedule: Q01DX001 (ip), vehicle: saline",101 % of control
O=C(O)c1c(Br)c(Br)c(Br)c(Br)c1C(=O)Nc1ccc([N+](=O)[O-])cc1,T/C,[4],104 % of control
same,T/C,[16],96 % of control
same,T/C,[6],109 % of control
same,T/C,[17],96 % of control
same,T/C,[18],107 % of control
